In publication PMC9914411, “Potent Xanthine Oxidase Inhibitory Activity of Constituents of Agastache rugosa (Fisch. and C.A.Mey.) Kuntze” (Foods, 2023):
Where two headings read alike, the source gives them in different places.

Columns and labels:
bovine milk XO [1] = target: T1, bovine milk XO (Bos taurus, UniProt P80457); test: XO inhibitory activity assay (uric acid formation from xanthine, absorbance at 295 nm); assay type: biochemical; details: for inhibition at 5 µM: read-out: XO inhibitory activity (%); for inhibition at 25 µM: read-out: Xanthine Oxidase Inhibition %
T1 construct: The bovine milk XO activity was assayed; from tissue; host or cells: bovine milk
T1 sequence (P80457 whole entry): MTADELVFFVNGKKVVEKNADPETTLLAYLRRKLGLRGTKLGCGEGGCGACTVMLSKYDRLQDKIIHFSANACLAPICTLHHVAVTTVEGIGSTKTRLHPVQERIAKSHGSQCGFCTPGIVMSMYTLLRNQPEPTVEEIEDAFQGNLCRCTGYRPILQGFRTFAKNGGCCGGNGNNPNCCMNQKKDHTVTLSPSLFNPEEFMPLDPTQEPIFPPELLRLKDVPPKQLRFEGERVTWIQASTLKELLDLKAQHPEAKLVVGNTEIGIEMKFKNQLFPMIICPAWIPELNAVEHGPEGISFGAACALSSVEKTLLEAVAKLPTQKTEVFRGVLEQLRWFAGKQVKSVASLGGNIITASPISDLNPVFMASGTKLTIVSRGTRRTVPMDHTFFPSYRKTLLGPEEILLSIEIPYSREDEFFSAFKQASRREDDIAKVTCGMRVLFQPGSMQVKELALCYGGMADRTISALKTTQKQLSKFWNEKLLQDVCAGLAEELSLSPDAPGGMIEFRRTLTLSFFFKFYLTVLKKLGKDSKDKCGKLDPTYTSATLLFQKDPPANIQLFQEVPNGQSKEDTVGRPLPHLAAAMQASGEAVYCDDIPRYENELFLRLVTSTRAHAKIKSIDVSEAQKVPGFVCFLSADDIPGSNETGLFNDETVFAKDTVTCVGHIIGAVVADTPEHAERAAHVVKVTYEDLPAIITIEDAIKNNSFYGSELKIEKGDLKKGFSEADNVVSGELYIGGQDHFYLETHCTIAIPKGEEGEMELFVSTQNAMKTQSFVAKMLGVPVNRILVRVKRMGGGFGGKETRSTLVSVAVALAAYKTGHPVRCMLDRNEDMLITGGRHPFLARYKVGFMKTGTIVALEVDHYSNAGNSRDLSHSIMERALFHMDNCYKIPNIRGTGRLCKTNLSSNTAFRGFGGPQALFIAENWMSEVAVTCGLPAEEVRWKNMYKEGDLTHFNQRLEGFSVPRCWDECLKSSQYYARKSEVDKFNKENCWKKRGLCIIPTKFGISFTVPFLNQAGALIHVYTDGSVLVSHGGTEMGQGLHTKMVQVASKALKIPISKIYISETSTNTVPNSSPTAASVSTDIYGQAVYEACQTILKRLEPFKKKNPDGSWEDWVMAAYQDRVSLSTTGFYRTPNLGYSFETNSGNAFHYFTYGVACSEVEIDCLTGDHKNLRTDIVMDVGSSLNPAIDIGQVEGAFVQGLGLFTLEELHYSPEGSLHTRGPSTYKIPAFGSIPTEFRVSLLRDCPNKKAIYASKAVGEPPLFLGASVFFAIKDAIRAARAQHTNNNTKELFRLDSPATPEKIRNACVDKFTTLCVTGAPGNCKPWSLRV
Protocol: The bovine milk XO activity was assayed following the previously published procedures. […] First, 125 µL of 100 mM sodium pyrophosphate buffer (HCl, pH 7.5), 30 µL of 0.1 units XO enzyme, 5 µL of test samples, and 40 µL of the substrate (0.5 mM xanthine) were mixed. […] The inhibition mechanism and constants (Km, Vmax, and Ki) of a binding site for the inhibitor to a free enzyme (KI) or an enzyme–substrate complex (KIS) were determined using the Lineweaver–Burk and Dixon plots.
The ARE was prepared using five different polar solvents (EtOH, 70% EtOH, 50% EtOH, 30% EtOH, and H2O) and tested for their XO inhibitory activity.

bovine milk XO [2] = target: T1, bovine milk XO; test: XO kinetic assay (Lineweaver–Burk and Dixon plots, reversibility, preincubation); assay type: biochemical; details: for Xanthine Oxidase Kinetic Mode: Lineweaver–Burk and Dixon plots
Protocol: The bovine milk XO activity was assayed following the previously published procedures. […] First, 125 µL of 100 mM sodium pyrophosphate buffer (HCl, pH 7.5), 30 µL of 0.1 units XO enzyme, 5 µL of test samples, and 40 µL of the substrate (0.5 mM xanthine) were mixed. The reaction mixture (200 µL) in a 300 µL well plate was incubated at 37 °C and the UV absorbance at 295 nm was screened every 1 min for 15 min. The inhibition mechanism and constants (Km, Vmax, and Ki) of a binding site for the inhibitor to a free enzyme (KI) or an enzyme–substrate complex (KIS) were determined using the Lineweaver–Burk and Dixon plots. 1/V = Km/Vmax (1 + [I]/KI) 1/S + 1/Vmax(1) Slope = Km/KI Vmax [I] + Km/Vmax (2) Intercept = 1/KIS Vmax [I] + 1/Vmax (3) […]
The kinetic behaviors of the oxidation of xanthine catalyzed by XO at different concentrations of inhibitor were analyzed using both Lineweaver–Burk (Figure 3A) and Dixon plots (Figure 3B). […] The two possible inhibition mechanisms were investigated to reveal which one gives this kinetic profile. The mechanisms of mixed inhibition can be investigated through the changes of the substrate with inhibitor followed by measurements of the residual enzyme–substrate complex. Parameters of free enzyme (KI) and the enzyme–substrate complex (KIS) can be fitted to Equations (2) and (3). […] Further analysis of the progress of the inhibition was undertaken by preincubating the enzyme with 7, prior to the addition of the substrate.

[3] = isolated compounds and positive controls, read-out: Xanthine Oxidase IC50
[4] = sample concentration 25 µM for the compound

Xanthine Oxidase Kinetic Mode (bovine milk XO [2])	IC50 (bovine milk XO [1]; [3])	inhibition at 25 µM (bovine milk XO [1]; [4])	SMILES	further results
	26.4 ± 0.6 µM	49.3 ± 1.5%	COc1ccc(-c2cc(=O)c3c(O)cc(O[C@@H]4O[C@H](CO)[C@@H](O)[C@H](O)[C@H]4O)cc3o2)cc1 [Compound 3, Tilianin]	
	80.6 ± 0.7 µM	36.2 ± 1.4%	COc1ccc(-c2cc(=O)c3c(O)cc(OC4OC(COC(=O)CC(=O)O)C(O)C(O)C4O)cc3o2)cc1 [Compound 4, Acacetin 7-O-(6-O-malonyl)-β-D-glucoside]	
	> 100 µM	26.2 ± 0.9%	COc1ccc(-c2cc(=O)c3c(O)cc(OC4OC(COC(=O)CC(=O)O)C(O)C(O)C4OC(C)=O)cc3o2)cc1 [Compound 6, Acacetin 7-O-(2″-O-acetyl-6″-O-malonyl)-β-D-glucoside]	
mixed type I	0.58 ± 0.5 µM	94.5 ± 1.4%	COc1ccc(-c2cc(=O)c3c(O)cc(O)cc3o2)cc1 [Compound 7, Acacetin]	inhibition at 5 µM (bovine milk XO [1]; concentration of 5 μM): 75.5%; Ki (bovine milk XO [2]; Dixon plots, read-out: Xanthine Oxidase Ki): 0.61 µM; Reversibility of XO inhibition (bovine milk XO [2]; activity versus enzyme concentration at 0-1.56 μM inhibitor): reversible inhibition; Inhibition as a function of preincubation time (bovine milk XO [2]; enzyme preincubated with inhibitor at 0.2 μM): time-dependent inhibitory behavior; KIS (inhibitor binding to enzyme–substrate complex) (bovine milk XO [2]; secondary plot of intercept, Equation (3)): 1.14 µM; Ki (bovine milk XO [2]; secondary plot of slope, Equation (2), read-out: KI (inhibitor binding to free enzyme)): 0.57 µM

Continued, compound first:

SMILES	Xanthine Oxidase Kinetic Mode (bovine milk XO [2])	IC50 (bovine milk XO [1]; [3])	inhibition at 25 µM (bovine milk XO [1]; [4])	further results
Oc1ncnc2[nH]ncc12 [Allopurinol, reference compound]	Competitive			inhibition at 5 µM (bovine milk XO [1]): 51.9%; inhibition at 25 µM (bovine milk XO [1]): 82.5 ± 1.2%
O=c1cc(-c2ccc(O)cc2)oc2cc(O)cc(O)c12 [Apigenin, reference compound]	Competitive	0.87 µM	88.6 ± 1.2%	inhibition at 5 µM (bovine milk XO [1]; concentration of 5 μM): 67.2%
O=C(/C=C/c1ccc(O)c(O)c1)O[C@H](Cc1ccc(O)c(O)c1)C(=O)O [Compound 1, Rosmarinic acid]		> 100 µM	27.2 ± 1.5%	
O=C(/C=C/c1ccc(O)c2c1[C@H](C(=O)O[C@H](Cc1ccc(O)c(O)c1)C(=O)O)[C@@H](c1ccc(O)c(O)c1)O2)O[C@H](Cc1ccc(O)c(O)c1)C(=O)O [Compound 2, Salvianolic acid B]			46.1 ± 1.2%	IC50 (bovine milk XO [1]): 30.7 ± 0.8 µM
COc1ccc(-c2cc(=O)c3c(O)cc(OC4OC(CO)C(O)C(O)C4OC(C)=O)cc3o2)cc1 [Compound 5, Acacetin 7-O-(2″-O-acetyl)-β-D-glucoside]		74.5 ± 0.9 µM	40.7 ± 1.5%	
